Columns and labels:
Assay in all cases: relative viability (nuclei count vs DMSO), 5 days (fraction); higher = more cells survive
[1] = system: HCC-78
Procedure, shortened: (§1)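 Lung cancer cell lines were pin-tool dosed in 1536-well plates on the day after seeding, with either a lone drug or a fixed anchor-drug dose plus five library-drug doses (not always all listed) in √10 steps. Nuclei were counted on 4× images after 5 days. Relative viability is the ratio of treated-well to vehicle-well nuclei counts, with each value a median of duplicate plates.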

[2] = system: HCC-827
Procedure, shortened: as §1

[3] = system: NCI-H1650
Procedure, shortened: as §1

[4] = system: NCI-H2087
Procedure, shortened: as §1

[5] = system: EKVX
Procedure, shortened: as §1

[6] = system: NCI-H1792
Procedure, shortened: as §1

[7] = system: NCI-H727
Procedure, shortened: as §1

[8] = system: COR-L 105
Procedure, shortened: as §1

[9] = system: NCI-H1734
Procedure, shortened: as §1

[10] = system: EMC-BAC-2
Procedure, shortened: as §1

[11] = system: EPLC-272H
Procedure, shortened: as §1

[12] = system: NCI-H2126
Procedure, shortened: as §1

[13] = system: LOU-NH91
Procedure, shortened: as §1

[14] = system: ChaGo-K-1
Procedure, shortened: as §1

[15] = system: RERF-LC-KJ
Procedure, shortened: as §1

[16] = system: SW 1573
Procedure, shortened: as §1

[17] = system: LU99A
Procedure, shortened: as §1

[18] = system: BEN
Procedure, shortened: as §1

[19] = system: LCLC-97TM1
Procedure, shortened: as §1

## O=C(O)CCCCC(CCSCc1ccccc1)SCc1ccccc1 (stereo not given) [CPI-613] + CC(C)C[C@H](NC(=O)[C@H](Cc1ccccc1)NC(=O)c1cnccn1)B(O)O [Bortezomib] (partner 0.002 µM)
[1]; first compound 5 µM
  relative viability: 0.5
[1]; first compound 15.81 µM
  relative viability: 0.397
[1]; first compound 50 µM
  relative viability: 0.553
[1]; first compound 158.11 µM
  relative viability: 0.445
[1]; first compound 500 µM
  relative viability: 0.602
[2]; first compound 5 µM
  relative viability: 0.923
[2]; first compound 15.81 µM
  relative viability: 1.02
[2]; first compound 50 µM
  relative viability: 0.926
[2]; first compound 158.11 µM
  relative viability: 0.916
[2]; first compound 500 µM
  relative viability: 0.786
[3]; first compound 5 µM
  relative viability: 0.196
[3]; first compound 15.81 µM
  relative viability: 0.204
[3]; first compound 50 µM
  relative viability: 0.187
[3]; first compound 158.11 µM
  relative viability: 0.0869
[3]; first compound 500 µM
  relative viability: 0.0195
[4]; first compound 5 µM
  relative viability: 0.838
[4]; first compound 15.81 µM
  relative viability: 0.725
[4]; first compound 50 µM
  relative viability: 0.827
[4]; first compound 158.11 µM
  relative viability: 0.33
[4]; first compound 500 µM
  relative viability: 0.016
[5]; first compound 5 µM
  relative viability: 0.864
[5]; first compound 15.81 µM
  relative viability: 0.957
[5]; first compound 50 µM
  relative viability: 1.05
[5]; first compound 158.11 µM
  relative viability: 0.548
[5]; first compound 500 µM
  relative viability: 1.04
[6]; first compound 5 µM
  relative viability: 0.889
[6]; first compound 15.81 µM
  relative viability: 0.886
[6]; first compound 50 µM
  relative viability: 0.996
[6]; first compound 158.11 µM
  relative viability: 0.836
[6]; first compound 500 µM
  relative viability: 0.893
[7]; first compound 5 µM
  relative viability: 0.806
[7]; first compound 15.81 µM
  relative viability: 0.782
[7]; first compound 50 µM
  relative viability: 0.792
[7]; first compound 158.11 µM
  relative viability: 0.665
[7]; first compound 500 µM
  relative viability: 0.0714
[8]; first compound 5 µM
  relative viability: 0.652
[8]; first compound 15.81 µM
  relative viability: 0.859
[8]; first compound 50 µM
  relative viability: 0.542
[8]; first compound 158.11 µM
  relative viability: 0.287
[8]; first compound 500 µM
  relative viability: 0.195
[9]; first compound 5 µM
  relative viability: 0.858
[9]; first compound 15.81 µM
  relative viability: 0.846
[9]; first compound 50 µM
  relative viability: 0.877
[9]; first compound 158.11 µM
  relative viability: 0.278
[9]; first compound 500 µM
  relative viability: 0.101
[10]; first compound 5 µM
  relative viability: 1.06
[10]; first compound 15.81 µM
  relative viability: 0.993
[10]; first compound 50 µM
  relative viability: 1.07
[10]; first compound 158.11 µM
  relative viability: 0.936
[10]; first compound 500 µM
  relative viability: 0.4
[11]; first compound 5 µM
  relative viability: 0.937
[11]; first compound 15.81 µM
  relative viability: 0.859
[11]; first compound 50 µM
  relative viability: 1.1
[11]; first compound 158.11 µM
  relative viability: 0.778
[11]; first compound 500 µM
  relative viability: 0.93
[12]; first compound 5 µM
  relative viability: 1.11
[12]; first compound 15.81 µM
  relative viability: 1.06
[12]; first compound 50 µM
  relative viability: 1.04
[12]; first compound 158.11 µM
  relative viability: 0.669
[12]; first compound 500 µM
  relative viability: 0.761
[13]; first compound 5 µM
  relative viability: 0.49
[13]; first compound 15.81 µM
  relative viability: 0.524
[13]; first compound 50 µM
  relative viability: 0.393
[13]; first compound 158.11 µM
  relative viability: 0.435
[13]; first compound 500 µM
  relative viability: 0.467
[14]; first compound 5 µM
  relative viability: 0.836
[14]; first compound 15.81 µM
  relative viability: 0.855
[14]; first compound 50 µM
  relative viability: 0.804
[14]; first compound 158.11 µM
  relative viability: 0.671
[14]; first compound 500 µM
  relative viability: 0.554
[15]; first compound 5 µM
  relative viability: 1.1
[15]; first compound 15.81 µM
  relative viability: 1.13
[15]; first compound 50 µM
  relative viability: 1.08
[15]; first compound 158.11 µM
  relative viability: 1.07
[15]; first compound 500 µM
  relative viability: 0.958
[16]; first compound 5 µM
  relative viability: 0.951
[16]; first compound 15.81 µM
  relative viability: 0.985
[16]; first compound 50 µM
  relative viability: 0.979
[16]; first compound 158.11 µM
  relative viability: 0.884
[16]; first compound 500 µM
  relative viability: 0.802
[17]; first compound 5 µM
  relative viability: 1.04
[17]; first compound 15.81 µM
  relative viability: 1.04
[17]; first compound 50 µM
  relative viability: 0.961
[17]; first compound 158.11 µM
  relative viability: 0.815
[17]; first compound 500 µM
  relative viability: 0.08
[18]; first compound 5 µM
  relative viability: 0.819
[18]; first compound 15.81 µM
  relative viability: 0.539
[18]; first compound 50 µM
  relative viability: 0.633
[18]; first compound 158.11 µM
  relative viability: 0.708
[18]; first compound 500 µM
  relative viability: 0.658
[19]; first compound 5 µM
  relative viability: 0.728
[19]; first compound 15.81 µM
  relative viability: 0.276
[19]; first compound 50 µM
  relative viability: 0.583
[19]; first compound 158.11 µM
  relative viability: 0.532
[19]; first compound 500 µM
  relative viability: 0.819

— the supplement of paper PMC10307832
